Consider 22 compounds from US9497970B2, “Pesticide compounds” (priority 2013, dated 2016).

Format in all cases: in vivo
Experiment [1] has as its system Diamond Back Moth (Plutella xylostella). The experiment in a line: B.1 Diamond Back Moth (Plutella xylostella), cabbage leaf dip. The conditions noted are these: foliar, 500 ppm, 3rd instar larvae on dipped cabbage leaves, 72 hours after treatment, in comparison with untreated controls, read-out: mortality. The method, then: B.1 Diamond Back Moth (Plutella xylostella)
The active compound was dissolved at the desired concentration in a mixture of 1:1 (vol:vol) distilled water:aceteone. Surfactant (Kinetic HV) was added at a rate of 0.01% (vol/vol). The test solution was prepared at the day of use.
Leaves of cabbage were dipped in test solution and air-dried. Treated leaves were placed in petri dishes lined with moist filter paper and inoculated with ten 3rd instar larvae. Mortality was recorded 72 hours after treatment. Feeding damages were also recorded using a scale of 0-100%.

The subject of experiment [2] is Boll Weevil (Anthonomus grandis). Kind of experiment: B.3 Boll Weevil (Anthonomus grandis), microtiter plate insect diet. The conditions noted are these: 120 h, 800 ppm, sprayed onto insect diet, 5 days, in comparison with untreated controls, read-out: mortality (egg and larval). The method, then:
B.3 Boll Weevil (Anthonomus grandis)
For evaluating control of boll weevil (Anthonomus grandis) the test unit consisted of 96-well-microtiter plates containing an insect diet and 5-10 A. grandis eggs.
(§1) The compounds were formulated using a solution containing 75% v/v water and 25% v/v DMSO. Different concentrations of formulated compounds were sprayed onto the insect diet at 5 μl, using a custom built micro atomizer, at two replications.
After application, microtiter plates were incubated at about 25±1° C. and about 75±5% relative humidity for 5 days. Egg and larval mortality was then visually assessed.

In experiment [3] the test system is Tobacco Budworm (Heliothis virescens). The experiment in a line: B.7 Tobacco Budworm (Heliothis virescens) I, microtiter plate insect diet. The conditions noted are these: 120 h, 800 ppm, sprayed onto insect diet, 5 days, in comparison with untreated controls, read-out: mortality (egg and larval). On the procedure:
B.7 Tobacco Budworm (Heliothis virescens) I
For evaluating control of tobacco budworm (Heliothis virescens) the test unit consisted of 96-well-microtiter plates containing an insect diet and 15-25 H. virescens eggs. The compounds were formulated using a solution containing 75% v/v water and 25% v/v DMSO. Different concentrations of formulated compounds were sprayed onto the insect diet at 10 μl, using a custom built micro atomizer, at two replications.
(§2) After application, microtiter plates were incubated at about 28±1° C. and about 80±5% relative humidity for 5 days. Egg and larval mortality was then visually assessed.

Experiment [4] relates to Mediterranean Fruitfly (Ceratitis capitata). The experiment in a line: B.6 Mediterranean Fruitfly (Ceratitis capitata), microtiter plate insect diet. The conditions noted are these: 120 h, 800 ppm, sprayed onto insect diet, 5 days, in comparison with untreated controls, read-out: mortality (egg and larval). The method, then:
B.6 Mediterranean Fruitfly (Ceratitis capitata)
For evaluating control of Mediterranean fruitfly (Ceratitis capitata) the test unit consisted of microtiter plates containing an insect diet and 50-80 C. capitata eggs.
as §1, §2

By mortality is commonly meant the share of the test organisms that died. As for `FC(F)(F)Oc1ccc(-n2cnc3c4ccc(/C=N/NC(=S)Nc5c(Cl)cc(Cl)cc5Cl)cc4ccc32)cc1` [C-3, 1-(2,4,6-trichlorophenyl)-3-[(E)-[3-[4-(trifluoromethoxy)phenyl]benzo[e]benzimidazol-7-yl]methyleneamino] thiourea], in experiment [1], the mortality at 500 ppm was at least 75%. The mortality at 800 ppm in experiment [2], in experiment [3] and in experiment [4] was at least 75% throughout.

In the case of `Cc1cccc(C)c1NC(=S)N/N=C/c1ccc2c(c1)CCc1c-2nnn1-c1ccc(OC(F)(F)F)cc1` [C-11, 1-(2,6-dimethylphenyl)-3-[(E)-[3-[4-(trifluoromethoxy)phenyl]-4,5-dihydrobenzo[e]benzotriazol-7-yl]methyleneamino]thiourea], the mortality at 800 ppm in experiment [3] and in experiment [4] was at least 75% throughout.

Take `COc1ccccc1NC(=S)N/N=C/c1ccc2c(ccc3c2ncn3-c2ccc(OC(F)(F)F)cc2)c1` [C-26, 3-(2-methoxyphenyl)-1-[[3-[4-(trifluoromethoxy)phenyl]-9aH-benzo[e]benzimidazol-7-ylidene]methylimino] isothiourea]: the mortality at 500 ppm in experiment [1] is at least 75%. For the same compound, the mortality at 800 ppm in experiment [2], in experiment [3] and in experiment [4] was at least 75% each time.

On to `FC(F)(F)Oc1ccc(-n2cnc3c4ccc(/C=N/NC(=S)Nc5ccc(Cl)cc5Cl)cc4ccc32)cc1` [C-27, 1-(2,4-dichlorophenyl)-3-[(E)-[3-[4-(trifluoromethoxy)phenyl]benzo[e]benzimidazol-7-yl]methyleneamino]thiourea], for which, in experiment [1], the mortality at 500 ppm was at least 75%. In addition, the mortality at 800 ppm in experiment [2] and in experiment [4] was at least 75% each time.

`Cc1cccc(NC(=S)N/N=C/c2ccc3c(ccc4c3ncn4-c3ccc(OC(F)(F)F)cc3)c2)c1C` [C-28, 1-(2,3-dimethylphenyl)-3-[(E)-[3-[4-(trifluoromethoxy)phenyl]benzo[e]benzimidazol-7-yl]methyleneamino] thiourea]: the mortality at 800 ppm in experiment [2], in experiment [3] and in experiment [4] was at least 75% each time.

Take `CCc1ccccc1NC(=S)N/N=C/c1ccc2c(c1)CCc1c-2nnn1-c1ccc(OC(F)(F)F)cc1` [C-32, 1-(2-ethylphenyl)-3-[[3-[4-(trifluoromethoxy)phenyl]-5,6-dihydro-4H-benzo[e]benzotriazol-7-ylidene]methylimino]thiourea]: in experiment [2], the mortality at 800 ppm was at least 75%.

As for `Cc1cc(Br)cc(C)c1NC(=S)N/N=C/c1ccc2c(c1)CCc1c-2nnn1-c1ccc(OC(F)(F)F)cc1` [C-33, 1-(4-bromo-2,6-dimethyl-phenyl)-3-[(E)-[3-[4-(trifluoromethoxy)phenyl]-4,5-dihydrobenzo[e]benzotriazol-7-yl]methyleneamino]thiourea], the mortality at 800 ppm in experiment [2] and in experiment [3] was at least 75% throughout.

For `Cc1c(Cl)cccc1NC(=S)N/N=C/c1ccc2c(ccc3c2ncn3-c2ccc(OC(F)(F)F)cc2)c1` [C-39, 1-(3-chloro-2-methyl-phenyl)-3-[(E)-[3-[4-(trifluoromethoxy)phenyl]benzo[e]benzimidazol-7-yl]methyleneamino] thiourea], the mortality at 800 ppm in experiment [2], in experiment [3] and in experiment [4] was at least 75% in each case.

On to `Fc1ccccc1NC(=S)N/N=C/c1ccc2c(ccc3c2ncn3-c2ccc(OC(F)(F)F)cc2)c1` [C-40, 3-(2-fluorophenyl)-1-[[3-[4-(trifluoromethoxy)phenyl]-5H-benzo[e]benzimidazol-7-ylidene]methylimino] isothiourea], for which the mortality at 500 ppm in experiment [1] was at least 75%. For the same compound, the mortality at 800 ppm in experiment [2] and in experiment [4] was at least 75% in each case.

Regarding `FC(F)(F)Oc1ccc(-n2cnc3c4ccc(/C=N/NC(=S)Nc5cc(Cl)ccc5Cl)cc4ccc32)cc1` [C-42, 1-(2,5-dichlorophenyl)-3-[(E)-[3-[4-(trifluoromethoxy)phenyl]benzo[e]benzimidazol-7-yl]methyleneamino] thiourea], the mortality at 800 ppm in experiment [2] is at least 75%.

Consider `FC(F)(F)Oc1ccc(-n2ncc3c4ccc(/C=N/NC(=S)Nc5c(Cl)cccc5Cl)cc4ccc32)cc1` [C-49, 1-(2,6-dichlorophenyl)-3-[(E)-[3-[4-(trifluoromethoxy)phenyl]benzo[e]indazol-7-yl]methyleneamino]thiourea], for which the mortality at 800 ppm in experiment [2] and in experiment [3] was at least 75% in each case.

As for `Cc1cccc(C)c1NC(=S)N/N=C/c1ccc2c(ccc3c2nnn3-c2ccc(OC(F)(F)F)cc2)c1` [C-54, 1-(2,6-dimethylphenyl)-3-[(E)-[3-[4-(trifluoromethoxy)phenyl]benzo[e]benzotriazol-7-yl]methyleneamino] thiourea], in experiment [3], the mortality at 800 ppm was at least 75%.

Take `C/C(=N\NC(=S)Nc1c(Cl)cccc1Cl)c1ccc2c(ccc3c2ncn3-c2ccc(OC(F)(F)F)cc2)c1` [C-59]: the mortality at 800 ppm in experiment [2], in experiment [3] and in experiment [4] was at least 75% in each case.

For the compound `CCc1cccc(CC)c1NC(=S)N/N=C/c1ccc2c(ccc3c2nnn3-c2ccc(OC(F)(F)F)cc2)c1` [C-61, 1-(2,6-diethylphenyl)-3-[(E)-[3-[4-(trifluoromethoxy)phenyl]benzo[e]benzotriazol-7-yl]methyleneamino] thiourea], the mortality at 800 ppm in experiment [2] and in experiment [3] was at least 75% each time.

Turning to `CCc1cccc(C)c1NC(=S)N/N=C/c1ccc2c(ccc3c2nnn3-c2ccc(OC(F)(F)F)cc2)c1` [C-62, 1-(2-ethyl-6-methyl-phenyl)-3-[(E)-[3-[4-(trifluoromethoxy)phenyl]benzo[e]benzotriazol-7-yl]methyleneamino] thiourea], in experiment [3], the mortality at 800 ppm was at least 75%.

For `Cc1cccnc1NC(=S)N/N=C/c1ccc2c(ccc3c2ncn3-c2ccc(OC(F)(F)F)cc2)c1` [C-63, 1-(3-methyl-2-pyridyl)-3-[(E)-[3-[4-(trifluoromethoxy)phenyl]benzo[e]benzimidazol-7-yl]methyleneamino] thiourea], the mortality at 800 ppm in experiment [2], in experiment [3] and in experiment [4] was at least 75% in each case.

On to `FC(F)(F)Oc1ccc(-n2cnc3c4ccc(/C=N/NC(=S)Nc5ccccc5I)cc4ccc32)cc1` [C-64, 1-(2-iodophenyl)-3-[[3-[4-(trifluoromethoxy)phenyl]-5H-benzo[e]benzimidazol-7-ylidene]methylimino] thiourea], for which the mortality at 800 ppm in experiment [2], in experiment [3] and in experiment [4] was at least 75% each time.

With `FC(F)(F)Oc1ccc(-n2cnc3c4ccc(/C=N/NC(=S)Nc5cccnc5)cc4ccc32)cc1` [C-73, 1-(3-pyridyl)-3-[(E)-[3-[4-(trifluoromethoxy)phenyl]benzo[e]benzimidazol-7-yl]methyleneamino] thiourea], the mortality at 800 ppm in experiment [2] was at least 75%.

For `O=C(N/N=C/c1ccc2c(ccc3c2ncn3-c2ccc(OC(F)(F)F)cc2)c1)Nc1ccccc1` [C-89, 1-phenyl-3-[(E)-[3-[4-(trifluoromethoxy)phenyl]benzo[e]benzimidazol-7-yl]methyleneamino]urea], the mortality at 500 ppm in experiment [1] is at least 75%. The mortality at 800 ppm in experiment [2] and in experiment [3] was at least 75% each time.

As for `CN1N=C2c3ccc(/C=N/NC(=S)Nc4c(Cl)cccc4Cl)cc3CCC2C1c1ccc(OC(F)(F)F)cc1` (stereo not drawn) [C-95, 1-(2,6-dichlorophenyl)-3-[(E)-[2-methyl-3-[4-(trifluoromethoxy)phenyl]-3,3a,4,5-tetrahydrobenzo[g]indazol-7-yl]methyleneamino]thiourea], in experiment [1], the mortality at 500 ppm is at least 75%. In addition, the mortality at 800 ppm in experiment [2] and in experiment [3] was at least 75% each time.

For `Cn1nc2c(ccc3cc(/C=N/NC(=S)Nc4ncccc4I)ccc32)c1-c1ccc(OC(F)(F)F)cc1` [C-102, 1-(3-iodo-2-pyridyl)-3-[(E)-[2-methyl-3-[4-(trifluoromethoxy)phenyl]benzo[g]indazol-7-yl]methyleneamino]thiourea], the mortality at 800 ppm in experiment [2] is at least 75%.

Turning to `O=C(/N=C1\SCC(=O)N1c1ccccc1C(F)(F)F)Nc1ccc2c(ccc3c2ncn3-c2ccc(OC(F)(F)F)cc2)c1` [C-116, (1Z)-1-[4-oxo-3-[2-(trifluoromethyl)phenyl]thiazolidin-2-ylidene]-3-[3-[4-(trifluoromethoxy)phenyl]-8H-benzo[e]benzimidazol-7-ylidene]urea], the mortality at 800 ppm in experiment [2] and in experiment [3] was at least 75% each time.
